Reference: PMC10683472, “Deep Learning-Driven Library Design for the De Novo Discovery of Bioactive Thiopeptides” (ACS Central Science, 2023)
Like-named read-outs stand apart in the source and are kept apart here. Where a SMILES comes first, the peptide text is derived from it. Where no end group is shown, it is not given here. pyridine‑bisazole = not defined here

T1: IRAK4 (Homo sapiens, UniProt Q9NWZ3)
T1 sequence (Q9NWZ3 1-460): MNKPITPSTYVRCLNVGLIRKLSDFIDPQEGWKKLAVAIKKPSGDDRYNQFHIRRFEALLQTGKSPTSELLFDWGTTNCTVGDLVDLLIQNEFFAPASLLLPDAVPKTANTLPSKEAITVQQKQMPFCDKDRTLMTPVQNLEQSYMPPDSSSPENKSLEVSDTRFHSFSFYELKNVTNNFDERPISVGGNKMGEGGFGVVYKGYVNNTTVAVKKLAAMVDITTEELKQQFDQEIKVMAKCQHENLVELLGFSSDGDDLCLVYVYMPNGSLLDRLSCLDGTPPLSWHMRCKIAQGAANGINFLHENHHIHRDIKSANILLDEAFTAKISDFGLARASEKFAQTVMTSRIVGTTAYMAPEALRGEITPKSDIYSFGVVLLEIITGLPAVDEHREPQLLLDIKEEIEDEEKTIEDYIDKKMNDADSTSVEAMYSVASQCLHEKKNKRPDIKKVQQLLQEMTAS

T2: Biotinylated IRAK4 (kinase domain, amino acids 1-460; NP_057207.2) (Homo sapiens, UniProt Q9NWZ3)
T2 construct: acids 1-460; NP_057207.2) was purchased from Carna Biosciences; purchased Carna Biosciences (Kobe, Japan)
T2 sequence (Q9NWZ3 1-460): T1 sequence (Q9NWZ3 1-460)

T3: interleukin-1 receptor-associated kinase 4 (UniProt Q9NWZ3 1-460)
T3 construct: interleukin-1 receptor-associated kinase 4 (IRAK4); Immobilised on magnetic beads in the mRNA display experiments; also called IRAK4; IRAK4 kinase
T3 sequence (looked up): T1 sequence (Q9NWZ3 1-460)

T4: toll-like receptor 10, extracellular domain (UniProt Q9BXR5 20-576)
T4 construct: toll-like receptor 10 (TLR10), extracellular domain; The extracellular domain is stated for the SPR experiment; also called TLR10; TLR10 cell surface receptor
T4 sequence (looked up): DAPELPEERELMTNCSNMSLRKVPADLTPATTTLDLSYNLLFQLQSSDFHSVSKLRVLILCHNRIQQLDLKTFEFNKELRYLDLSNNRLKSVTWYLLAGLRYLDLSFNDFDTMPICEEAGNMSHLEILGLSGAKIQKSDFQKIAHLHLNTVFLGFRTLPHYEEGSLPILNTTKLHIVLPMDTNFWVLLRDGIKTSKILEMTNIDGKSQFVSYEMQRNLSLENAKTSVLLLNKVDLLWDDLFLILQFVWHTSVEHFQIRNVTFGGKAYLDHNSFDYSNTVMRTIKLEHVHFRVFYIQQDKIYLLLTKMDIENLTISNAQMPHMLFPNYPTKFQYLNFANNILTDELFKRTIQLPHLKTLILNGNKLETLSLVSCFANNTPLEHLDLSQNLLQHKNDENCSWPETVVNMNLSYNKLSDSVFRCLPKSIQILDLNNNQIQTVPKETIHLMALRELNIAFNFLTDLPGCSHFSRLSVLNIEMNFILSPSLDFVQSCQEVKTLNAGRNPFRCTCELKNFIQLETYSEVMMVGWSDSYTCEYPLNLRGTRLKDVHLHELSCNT

B1: thiopeptide IR5 (synthetic) (peptide)
chain: SWSMLFKRRIYKSCSC
modifications: bridge (positions not given here) via pyridine‑bisazole; reading uncertain; also: macrocyclic lactazole-like thiopeptide with pyridine-bisazole moiety, places not given here, dehydroamino acids, places not given here
B2: thiopeptide TL20 (synthetic) (peptide)
chain: SWSLELSRVNVVIHSCSC
modifications: bridge (positions not given here) via pyridine‑bisazole; reading uncertain; also: macrocyclic lactazole-like thiopeptide with pyridine-bisazole moiety, places not given here, dehydroamino acids, places not given here

Tests used:
IRAK4 [1] = molecular target: T1, IRAK4; assay: Single-round mRNA display binding assay (qPCR), IRAK4; design: acids 1-460; NP_057207.2) was purchased from Carna Biosciences; purchased Carna Biosciences (Kobe, Japan); conditions: ratio of cDNA recoveries (qPCR), IRAK4 pulldown over beads only, single-round selection
IRAK4 [2] = molecular target: T1, IRAK4; assay: biochemical
[3] = tested on: lipopolysaccharide-induced NF-κB signaling in THP1-XBlue cells; assay: NF-kB signaling pathway inhibition assay (SEAP reporter, LPS-stimulated); type: cell-based; conditions: THP1-XBlue monocytes, 6 h pre-treatment, LPS-EK 30 ng/mL, SEAP read 20 h after induction
Description: (§1) 2.13. NF-kB signaling pathway inhibition assay
(§2) THP-1 Cellular Assay. THP1-XBlue cells containing an NF-kB-inducible secreted embryonic alkaline phosphatase (SEAP) reporter gene (InvivoGen) were seeded to 96-well assay plates (10^5 cells/well) with RPMI 1640 culture medium containing 10% fetal calf serum. The cells were pre-treated with various concentration of analyte thiopeptide inhibitor in 0.1% DMSO and incubated at 37 °C for 6 h. LPS-EK (30 ng/mL, InvivoGen) was subsequently added to activate the NF-kB signalling for 20 h. To quantitate SEAP activity, supernatants were harvested (300 g, 5min) and mixed with Quanti-Blue (InvivoGen) detection reagent following the manufacturer’s instructions.
(§3) Cells were assayed with cell counting kit-8 in parallel to rule out potential cytotoxicity. The plates

Serum stability assay = type: in vitro ADME; conditions: pH 7.6; human serum, 37 °C, LC/MS; read-out: serum stability τ1/2 (converted)
[4] = molecular target: T2, Biotinylated IRAK4 (kinase domain, amino acids 1-460; NP_057207.2); assay: Surface plasmon resonance binding to IRAK4
Excerpt: Reagents were purchased from Nacalai Tesque, Wako Pure Chemical Industries, Sigma-Aldrich Japan, or TCI Chemicals and were used as received. Biotinylated IRAK4 (kinase domain, amino acids 1-460; NP_057207.2) was purchased from Carna Biosciences (Kobe, Japan). Recombinant human TLR10 Fc Chimera protein (extracellular domain, amino acid 20-576; Q9BXR5) was purchased from R&D system (#6619-TR-050). Anti-HA magnetic beads were from Pierce Thermo Fisher Scientific (#88836). Magnetic beads with immobilized streptavidin were from Invitrogen (Dynabeads Streptavidin C1, # 65001). Magnetic beads with immobilized streptavidin were from Invitrogen (Dynabeads Streptavidin M280, #11206D).
Protein purification and synthesis of Streptomyces lactacystinaeus tRNAGlu were done as previously described.1–3 Protein concentration measurements were carried out on a Nanodrop 2000c spectrophotometer (Thermo Scientific) equipped with a 5 mm pathlength quartz cuvette using extinction coefficient values calculated with ExPASy ProtParam tool (https://web.expasy.org/protparam).
Biochemical measurements (sections 2.10 – 2.14) were performed in triplicate or more. Most experiments were reproduced to an analogous outcome at least once. In the cases where the determination of biophysical parameters involved cell assay (CP50 and IC50), reported are standard errors of the fit; otherwise, error bars are standard deviations.
RNA extracted from the gel with 300 mM NaCl were collected by ethanol precipitation followed by centrifugation (15300 g for 15 min) and dissolved in water for storage. tRNAini was aminoacylated with eFx using biotin-Phe-CME as a substrate. tRNAini (25 µM) and eFx (25 µM) were incubated with biotin-Phe-CME (5 mM) in HEPES-KOH buffer (50 mM; pH 7.5) containing 600 mM MgCl2 on ice for 2 h. The reactions were stopped with the addition of 300 mM NaOAc (pH 5.2), and precipitated with ethanol. Precipitated RNA was recovered by centrifugation (15300 g for 15 min). The pellet was washed with 70% ethanol in water (v/v) containing 100 mM NaOAc (pH 5.2) and used in translation.
2.10. Surface plasmon resonance
Binding affinities between the thiopeptides and IRAK4/TLR10 were measured with a Biacore 8K instrument (GE Healthcare) at 25 °C. The assay buffer for IRAK4 binding analysis contained 50 mM Tris (pH 7.5), 150 mM NaCl, 10 mM MgCl2, 0.05% (v/v) tween-20 and 0.1% (v/v) DMSO. The […]
Biotinylated IRAK4 was immobilized on a Biacore CAP chip (GE Healthcare) to a surface density […]
step was allowed to proceed for 480 s. Kinetic parameters and affinities of the interaction were […]
provided by the manufacturer. The interaction sensorgrams were measured as single -cycle […]
Kinetic parameters and affinities of the
Evaluation Software v.3.0 (GE Healthcare).

IRAK4 [5] = molecular target: T1, IRAK4; assay: mRNA display affinity selection against IRAK4, NGS abundance; type: binding; design: acids 1-460; NP_057207.2) was purchased from Carna Biosciences; purchased Carna Biosciences (Kobe, Japan); conditions: IRAK4 selection, NGS abundance rank
[6] = tested on: HaloTag expressing HEK293H cells; assay: Chloroalkane penetration assay (CAPA); conditions: 18 h, chloroalkane tag-containing derivatives IR1-ct and IR5-ct
Excerpt: The role of IRAK4 as a kinase acting downstream of TLR and interleukin-1 receptors to phosphorylate IRAK1 and transduce immunological signals is well-established.[37] […] Therefore, we investigated the inhibitory activity of thiopeptides IR1, 5, 8, and 11. […] We first prepared chloroalkane tag-containing derivatives, IR1-ct and IR5-ct (S.I. 5.3), and utilized them in a chloroalkane penetration assay[49] to test their cellular uptake. […]

THP1-XBlue cells = assay: Cell viability with Cell Counting Kit-8
Description: as §1, §2, §3

[7] = molecular target: T3, interleukin-1 receptor-associated …; assay: SPR; synthetic thiopeptides and target protein; conditions in S.I. 2.10 (not shown); conditions: both partners purified
[8] = molecular target: T3, interleukin-1 receptor-associated …; assay: cell-based or functional assay
[9] = molecular target: T4, toll-like receptor 10, extracellular …; assay: SPR; synthetic thiopeptides and target protein; conditions in S.I. 2.10 (not shown); conditions: both partners purified

Molecule	display P/N ratio (IRAK4 [1])	IC50 (IRAK4 [2])	IC50 [3]	half-life at 10 µM (Serum stability assay)	koff [4]	kon [4]	rank in pulldown(+) (IRAK4 [5])	rank in pulldown(–) (IRAK4 [5])	CP50 (midpoint internalization concentration) [6]	cytotoxicity (Cell Counting Kit-8) (THP1-XBlue cells)	koff ([4]; SPR, IRAK4, read-out: koff)	kon ([4]; SPR, IRAK4, read-out: kon)	cytotoxicity (Cell Counting Kit-8) (THP1-XBlue cells; at the tested concentrations)	Kd [7]	IC50, lipopolysaccharide-induced NF-κB signaling (secreted alkaline phosphatase reporter) in THP1-XBlue monocytes [8]	Kd [9]
C=C1NC(=O)C(=CC)NC(=O)[C@H](Cc2c[nH]c3ccccc23)NC(=O)[C@H](Cc2c[nH]cn2)NC(=O)[C@H](Cc2c[nH]c3ccccc23)NC(=O)[C@H]([C@@H](C)O)NC(=O)[C@H]([C@@H](C)CC)NC(=O)[C@H](Cc2ccccc2)NC(=O)[C@H](CCC(N)=O)NC(=O)[C@H](CCCNC(=N)N)NC(=O)[C@H](CCCCN)NC(=O)[C@H](CCCC)NC(=O)[C@H](CO)NC(=O)[C@H](Cc2c[nH]c3ccccc23)NC(=O)c2ccc(-c3nc(C(=O)OC)cs3)nc2-c2csc1n2 [IR1] (HELM PEPTIDE1{W.S.[Nle].K.R.Q.F.I.T.W.H.W.[CC=C(N[*:1])C(=O)[*:2]]}|CHEM1{[C=C(N[*:2])c1nc(-c2nc(-c3nc(C(=O)OC)cs3)ccc2C(=O)[*:1])cs1]}$PEPTIDE1,CHEM1,1:R1-1:R1|PEPTIDE1,CHEM1,13:R2-1:R2$$$V2.0; bridges inferred)	1829	3.1 ± 0.3 µM	7 µM	3.9 ± 0.1 h	0.00054 s⁻¹	2930 M⁻¹ s⁻¹	3	1	2.4 µM	not cytotoxic	–	–	–	–	–	–
C=C1NC(=O)[C@H](CCCCN)NC(=O)[C@H](Cc2ccc(O)cc2)NC(=O)[C@H]([C@@H](C)CC)NC(=O)[C@H](CCCNC(=N)N)NC(=O)[C@H](CCCNC(=N)N)NC(=O)[C@H](CCCCN)NC(=O)[C@H](Cc2ccccc2)NC(=O)[C@H](CC(C)C)NC(=O)[C@H](CCSC)NC(=O)[C@H](CO)NC(=O)[C@H](Cc2c[nH]c3ccccc23)NC(=O)c2ccc(-c3nc(C(=O)OC)cs3)nc2-c2csc1n2 [IR5] (HELM PEPTIDE1{W.S.M.L.F.K.R.R.I.Y.K}|CHEM1{[C=C(N[*:2])c1nc(-c2nc(-c3nc(C(=O)OC)cs3)ccc2C(=O)[*:1])cs1]}$PEPTIDE1,CHEM1,1:R1-1:R1|PEPTIDE1,CHEM1,11:R2-1:R2$$$V2.0; bridges inferred)	376	5.1 ± 0.4 µM	7.8 µM	1.3 ± 0.02 h	–	–	1	2	14.8 µM	–	0.0037 s⁻¹	2.92e+06 M⁻¹ s⁻¹	not cytotoxic	–	–	–
B1	–	–	–	–	–	–	–	–	–	–	–	–	–	0.0013 µM	7.8 µM	–
B2	–	–	–	–	–	–	–	–	–	–	–	–	–	–	–	0.3 µM
